Assay results reported in ChEMBL document CHEMBL1201862, “PubChem BioAssay data set” (2004).
Activity calls are given as the source filed them.

How the values were obtained:
[1] = target: T1, 1-phosphatidylinositol 4,5-bisphosphate phosphodiesterase beta-3 (Homo sapiens, UniProt Q01970); test: Fluorescence-based biochemical high throughput dose response assay to identify inhibitors of phospholipase C isozymes (PLC-B3).
T1 sequence (Q01970 whole entry): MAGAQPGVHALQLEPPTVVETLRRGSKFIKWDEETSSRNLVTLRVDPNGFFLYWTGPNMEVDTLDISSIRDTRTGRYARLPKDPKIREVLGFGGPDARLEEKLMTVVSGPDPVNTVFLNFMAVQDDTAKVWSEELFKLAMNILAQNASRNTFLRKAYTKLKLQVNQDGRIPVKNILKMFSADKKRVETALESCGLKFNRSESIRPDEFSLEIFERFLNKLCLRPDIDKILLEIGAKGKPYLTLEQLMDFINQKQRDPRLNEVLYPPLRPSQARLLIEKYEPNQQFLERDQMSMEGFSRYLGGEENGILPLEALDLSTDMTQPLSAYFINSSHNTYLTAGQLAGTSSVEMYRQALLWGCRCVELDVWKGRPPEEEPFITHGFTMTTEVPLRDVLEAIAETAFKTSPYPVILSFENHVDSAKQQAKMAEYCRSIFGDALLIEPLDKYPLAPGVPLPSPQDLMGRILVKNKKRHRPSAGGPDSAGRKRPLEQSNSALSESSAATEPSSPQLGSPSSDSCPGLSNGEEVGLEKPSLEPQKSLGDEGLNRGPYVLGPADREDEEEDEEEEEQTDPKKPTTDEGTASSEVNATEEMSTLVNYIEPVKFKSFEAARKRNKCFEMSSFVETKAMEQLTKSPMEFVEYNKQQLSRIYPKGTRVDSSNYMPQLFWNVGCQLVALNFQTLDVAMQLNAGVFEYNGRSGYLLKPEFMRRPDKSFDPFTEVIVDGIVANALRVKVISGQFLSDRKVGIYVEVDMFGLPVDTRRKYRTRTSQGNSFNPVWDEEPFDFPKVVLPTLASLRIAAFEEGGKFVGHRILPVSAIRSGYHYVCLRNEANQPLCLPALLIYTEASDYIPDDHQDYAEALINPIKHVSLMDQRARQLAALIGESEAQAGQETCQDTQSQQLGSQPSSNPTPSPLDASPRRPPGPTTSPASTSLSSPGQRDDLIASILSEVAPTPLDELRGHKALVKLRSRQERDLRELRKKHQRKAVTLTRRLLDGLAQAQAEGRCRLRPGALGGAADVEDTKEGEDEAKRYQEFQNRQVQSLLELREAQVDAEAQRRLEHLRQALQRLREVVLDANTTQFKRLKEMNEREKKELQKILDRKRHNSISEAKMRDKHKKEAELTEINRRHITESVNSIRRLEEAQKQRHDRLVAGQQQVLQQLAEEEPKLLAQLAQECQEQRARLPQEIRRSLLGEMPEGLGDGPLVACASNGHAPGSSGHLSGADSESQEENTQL

[2] = target: Polyadenylate-binding protein 1 (Homo sapiens, UniProt P11940); test: MLLE domain peptide-binding blockers, IC50 – biochemical, fluorescence polarization, FITC-PAM2 peptide, dose response (AID 602259); format: functional; conditions: read-out: IC50_Mean
[3] = target: T2, Dual specificity protein phosphatase 3 (Homo sapiens, UniProt P51452); test: VHR1 phosphatase inhibitors, biochemical (AID 1878)
[4] = target: T2, Dual specificity protein phosphatase 3; test: VHR1 phosphatase inhibitors, primary screen, biochemical, absorbance, uHTS (AID 1654)
[5] = target: Caspase-7 (Homo sapiens, UniProt P55210); test: caspase-7 enzyme inhibition, selectivity check – biochemical, DEVD-R110 fluorescence, cherry-pick, selectivity assay for caspase-6 inhibitor project, dose response (AID 743295); format: functional
[6] = target: Dual specificity tyrosine-phosphorylation-regulated kinase 1A (Rattus norvegicus, UniProt Q63470); format: biochemical, Homo sapiens
[7] = target: ORF 73 (Human herpesvirus 8, UniProt O40947); test: KSHV LANA DNA-binding disruption – biochemical, fluorescence polarization, cherry-picked samples, dose response (AID 504725); design: species or system Human gammaherpesvirus 8;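 further: fluorescence polarization of a labeled DNA duplex reporting LANA DNA binding; potency is for inhibitors that block LANA binding to the DNA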
[8] = target: T3, Endoribonuclease toxin MazF (Escherichia coli K-12, UniProt P0AE70); test: substrate-only fluorescence increase artefacts – biochemical, single-stranded RNase substrate, counter-screen for MazEF activator project, dose response (AID 588502); format: functional
T3 sequence (P0AE70 whole entry): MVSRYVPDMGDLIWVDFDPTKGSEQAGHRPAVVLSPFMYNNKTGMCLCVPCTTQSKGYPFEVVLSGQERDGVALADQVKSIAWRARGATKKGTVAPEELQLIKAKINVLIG

[9] = target: T4, Zinc finger protein mex-5 (Caenorhabditis elegans, UniProt Q9XUB2); test: potency of MEX-5 RNA-binding blockers – biochemical, C. elegans, fluorescence polarization, dose response (AID 1960)
T4 sequence (Q9XUB2 whole entry): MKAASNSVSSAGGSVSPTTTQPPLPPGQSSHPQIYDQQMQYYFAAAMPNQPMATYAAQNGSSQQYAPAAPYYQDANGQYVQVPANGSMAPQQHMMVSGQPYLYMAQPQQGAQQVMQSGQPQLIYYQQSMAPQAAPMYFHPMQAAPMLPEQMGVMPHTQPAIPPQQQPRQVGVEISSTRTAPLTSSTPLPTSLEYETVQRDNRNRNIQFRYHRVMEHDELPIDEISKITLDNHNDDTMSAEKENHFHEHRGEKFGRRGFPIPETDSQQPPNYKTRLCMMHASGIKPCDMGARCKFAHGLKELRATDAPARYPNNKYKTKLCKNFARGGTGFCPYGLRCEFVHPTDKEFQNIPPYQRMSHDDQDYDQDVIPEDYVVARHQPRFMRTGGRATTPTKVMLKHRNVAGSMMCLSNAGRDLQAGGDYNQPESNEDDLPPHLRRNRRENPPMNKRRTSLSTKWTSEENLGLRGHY

[10] = target: T5, Dual specificity protein phosphatase 6 (Rattus norvegicus, UniProt Q64346); test: inhibition of rat DUSP6 enzyme activity – biochemical, in vitro, primary screen (AID 425)
T5 sequence (Q64346 whole entry): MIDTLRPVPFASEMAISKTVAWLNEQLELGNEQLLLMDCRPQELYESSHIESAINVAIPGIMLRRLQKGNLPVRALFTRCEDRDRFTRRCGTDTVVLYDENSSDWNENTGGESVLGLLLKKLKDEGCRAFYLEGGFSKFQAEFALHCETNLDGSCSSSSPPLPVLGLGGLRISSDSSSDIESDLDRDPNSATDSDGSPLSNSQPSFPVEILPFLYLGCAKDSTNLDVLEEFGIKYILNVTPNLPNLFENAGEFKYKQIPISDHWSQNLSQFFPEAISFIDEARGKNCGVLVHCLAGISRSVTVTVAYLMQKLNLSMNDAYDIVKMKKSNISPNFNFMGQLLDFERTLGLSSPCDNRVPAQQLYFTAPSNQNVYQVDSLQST

T2 sequence (P51452 whole entry): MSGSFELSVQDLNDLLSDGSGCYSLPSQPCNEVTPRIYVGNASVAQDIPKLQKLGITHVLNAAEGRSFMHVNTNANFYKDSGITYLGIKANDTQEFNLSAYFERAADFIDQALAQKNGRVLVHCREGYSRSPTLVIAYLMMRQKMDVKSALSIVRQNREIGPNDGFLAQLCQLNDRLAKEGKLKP
ORF 73, sequence (O40947 whole entry): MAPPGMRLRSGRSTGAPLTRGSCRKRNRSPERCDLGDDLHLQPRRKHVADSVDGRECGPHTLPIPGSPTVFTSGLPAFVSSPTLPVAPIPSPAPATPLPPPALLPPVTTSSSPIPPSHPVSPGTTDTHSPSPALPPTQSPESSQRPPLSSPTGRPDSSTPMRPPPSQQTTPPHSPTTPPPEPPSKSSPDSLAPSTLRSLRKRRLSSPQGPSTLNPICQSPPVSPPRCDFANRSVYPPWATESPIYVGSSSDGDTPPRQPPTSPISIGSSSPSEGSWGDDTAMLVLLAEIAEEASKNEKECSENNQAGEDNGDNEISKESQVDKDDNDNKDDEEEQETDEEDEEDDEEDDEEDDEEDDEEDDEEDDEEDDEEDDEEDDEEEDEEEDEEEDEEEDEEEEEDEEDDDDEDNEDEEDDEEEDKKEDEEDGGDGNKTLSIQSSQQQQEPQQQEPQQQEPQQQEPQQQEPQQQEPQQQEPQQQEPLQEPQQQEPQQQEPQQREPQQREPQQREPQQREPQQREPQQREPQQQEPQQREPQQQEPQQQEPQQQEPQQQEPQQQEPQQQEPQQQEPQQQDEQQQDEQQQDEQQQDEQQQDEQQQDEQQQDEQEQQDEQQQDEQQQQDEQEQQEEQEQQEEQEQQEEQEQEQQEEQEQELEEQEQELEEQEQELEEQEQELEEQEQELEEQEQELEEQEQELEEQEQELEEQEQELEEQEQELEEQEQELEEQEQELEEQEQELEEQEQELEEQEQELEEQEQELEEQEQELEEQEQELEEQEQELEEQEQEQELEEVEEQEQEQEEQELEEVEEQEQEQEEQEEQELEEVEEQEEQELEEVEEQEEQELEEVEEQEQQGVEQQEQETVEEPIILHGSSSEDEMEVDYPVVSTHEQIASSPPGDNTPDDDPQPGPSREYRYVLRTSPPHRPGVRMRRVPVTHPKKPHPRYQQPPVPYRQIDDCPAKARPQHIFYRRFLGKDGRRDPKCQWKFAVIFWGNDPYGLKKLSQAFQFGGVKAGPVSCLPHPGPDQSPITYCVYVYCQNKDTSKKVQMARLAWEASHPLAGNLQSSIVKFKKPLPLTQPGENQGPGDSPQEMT
Caspase-7, sequence (P55210 24-198 limits assumed): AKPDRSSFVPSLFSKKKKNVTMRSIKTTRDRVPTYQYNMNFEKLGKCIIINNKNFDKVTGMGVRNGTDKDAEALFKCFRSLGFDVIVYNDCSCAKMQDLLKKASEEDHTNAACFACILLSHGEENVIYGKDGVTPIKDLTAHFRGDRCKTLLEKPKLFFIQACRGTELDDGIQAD
Caspase-7, sequence (P55210 207-303 limits assumed): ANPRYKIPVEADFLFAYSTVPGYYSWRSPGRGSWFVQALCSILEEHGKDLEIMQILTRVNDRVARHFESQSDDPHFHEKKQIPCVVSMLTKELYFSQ
Polyadenylate-binding protein 1, sequence (P11940 whole entry, the tested form may be a part): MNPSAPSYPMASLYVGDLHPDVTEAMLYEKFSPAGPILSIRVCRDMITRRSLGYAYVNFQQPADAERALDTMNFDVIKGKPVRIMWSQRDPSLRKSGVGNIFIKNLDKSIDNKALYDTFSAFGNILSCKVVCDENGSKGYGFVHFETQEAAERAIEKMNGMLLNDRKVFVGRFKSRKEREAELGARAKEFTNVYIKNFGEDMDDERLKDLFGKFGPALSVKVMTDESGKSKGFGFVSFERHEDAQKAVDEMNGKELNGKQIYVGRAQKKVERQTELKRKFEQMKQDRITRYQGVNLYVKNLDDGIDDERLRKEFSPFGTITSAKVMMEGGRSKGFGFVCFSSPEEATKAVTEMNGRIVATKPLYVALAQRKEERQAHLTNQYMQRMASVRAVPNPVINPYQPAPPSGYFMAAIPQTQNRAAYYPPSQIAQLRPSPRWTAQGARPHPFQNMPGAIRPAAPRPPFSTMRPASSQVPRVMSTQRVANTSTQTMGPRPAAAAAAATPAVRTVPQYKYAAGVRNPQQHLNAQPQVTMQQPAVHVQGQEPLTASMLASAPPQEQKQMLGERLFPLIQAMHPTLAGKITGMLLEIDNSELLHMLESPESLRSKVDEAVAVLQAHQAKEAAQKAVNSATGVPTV

SMILES: O=c1c(O)cccc2cc(O)c(O)c(O)c12 [PURPUROGALLIN]
- IC50 [1]: > 123 µM (inactive)
- IC50 [2]: 47.9 µM (inactive)
- IC50 [3]: < 1.23 µM (inactive)
- IC50 [4]: < 0.98 µM (inactive)
- AC50 [5]: 1.09 µM (active)
- AC50 [6]: 1.61 µM (active)
- AC50 [7]: 25.9 µM (active)
- EC50 [8]: > 99 µM (inactive)
- EC50 [9]: 0.152 µM (active)
- IC50 [10]: 29.2 µM (active)
